Test results as given in patent publication US20100144793A1, “NOVEL COMPOUNDS FOR THE TREATMENT OF DISEASES ASSOCIATED WITH AMYLOID OR AMYLOID-LIKE PROTEINS” (AC IMMUNE SA, priority 2006, published 2010).
Where a name gives a salt, the structure may show the parent alone. Read-outs that look alike come from different tables or passages of the source.

Columns and labels:
Aβ1-42 = target: T1, Aβ1-42 (Homo sapiens, UniProt P05067); assay: Thioflavin T spectrofluorescence assay: inhibition of Aβ1-42 aggregation; assay type: biochemical
T1 construct: Aβ1-42 lyophilized powder (Bachem) was reconstituted in hexafluoroisopropanol (HFIP) to 1 mM; purchased Bachem
T1 sequence (P05067 672-713 limits assumed): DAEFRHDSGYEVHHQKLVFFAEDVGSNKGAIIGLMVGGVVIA
Experimental: (§1) The objective of this example was to evaluate the capacity of the compounds of the invention to inhibit the aggregation of (Aβ)1-42 peptide and to disaggregate pre-aggregated Aβ1-42 using a thioflavin T spectrofluorescence assay.
(§2) Aβ1-42 lyophilized powder (Bachem) was reconstituted in hexafluoroisopropanol (HFIP) to 1 mM. The peptide solution was sonicated for 15 min at room temperature, agitated overnight, and aliquots were placed into non-siliconized microcentrifuge tubes. The HFIP was then evaporated under a stream of argon. The resulting peptide film was dried under vacuum for 10 min, tightly sealed and stored at −80° C. until used.
Aβ1-42 peptide film was dissolved in DMSO to reach 400 μM. Assay solution in PBS was prepared in non-siliconized incubation tubes to reach the following concentrations: 330 μM small molecule, 33 μM Aβ1-42, 10 μM thioflavin T (ThT), and 12.8% DMSO. Therefore, the final molar ratio of small molecule to Aβ1-42 was 10:1. A positive control without a small molecule was prepared to measure maximum RFU. A negative control without Aβ1-42 was prepared for each small molecule. 3-aminopyrazole trimer (Trimer) was tested in all assays to ascertain reproducibility between independent experiments. The solutions were then incubated for 24 h at 37° C., and the spectrofluorescence (relative fluorescence units; RFU) read in six replicates in black 384-well assay plates (Perkin-Elmer) on a Perkin-Elmer FluoroCount spectrofluorometer. Inhibition of aggregation is expressed as mean % inhibition±1 standard deviation (SD) according to the following equation: […]

preformed Aβ1-42 fibers = target: T2, preformed Aβ1-42 fibers (Homo sapiens, UniProt P05067); assay: Thioflavin T spectrofluorescence assay: disaggregation of preformed Aβ1-42 fibers; assay type: biochemical; conditions: Table 5; 330 μM small molecule, 10:1 molar ratio to pre-aggregated Aβ1-42, additional 24 h at 37° C.; mean ± SD of two independent experiments
T2 construct: Aβ1-42 lyophilized powder (Bachem) was reconstituted in hexafluoroisopropanol (HFIP) to 1 mM; purchased Bachem
T2 sequence (P05067 672-713 limits assumed): as above
Experimental: as §1, §2
This solution was then allowed to aggregate at 37° C. for 24 h after which a small molecule and ThT were added to obtain a final concentration of 330 μM small molecule and 10 μM ThT. […] This solution was then incubated for additional 24 h at 37° C. The spectrofluorescence was then measured and % disaggregation calculated. Disaggregation is expressed as mean % disaggregation±1 standard deviation (SD) according to the same equation as for the inhibition of aggregation.

[1] = target: T3, Oregon Green labeled Aβ(1-42) (Homo sapiens, UniProt P05067); assay: FCS-assay with 5 nM Oregon Green labeled Aβ-peptide (disaggregation of preformed aggregates); assay type: biochemical
T3 construct: DMSO-stock solutions of Oregon Green labeled Aβ(1-42) 1:1 with deionized water
T3 sequence (P05067 672-713 limits assumed): as above
Experimental: In order to analyse the disaggregating properties of the compounds, preformed aggregates were used, which were induced straight before the FCS-measurement by diluting low concentrated (500 nM) DMSO-stock solutions of Oregon Green labeled Aβ(1-42) 1:1 with deionized water. The final concentration of Oregon Green labeled Aβ-peptide was 5 nM in 1×PBS and 3% DMSO.
To improve the reproducibility of the measurements of the concentration dependencies all samples were prepared fourfold.

[2] = Table 3, 10:1 small molecule to Aβ1-42 molar ratio, 24 h at 37° C., mean ± SD of two independent experiments, read-out: % Inhibition
[3] = read-out: Percentage of the “number of peaks” value compared to the control reaction without added ligand
[4] = read-out: Percentage of the “peaks × height“ value compared to the control reaction without added ligand

Row | inhibition at 330 µM (Aβ1-42; [2]) | SMILES | melting point | other results
1 | – | c1ccc(-c2cc(NCCNc3cc(-c4ccccn4)[nH]n3)n[nH]2)nc1 (as salt: hydrochloride) [Compound 1al, N^1,N^2-bis(5-(Pyridin-2-yl)-1H-pyrazol-3-yl)ethane-1,2-diamine tetra-hydrochloride] | > 250 °C | –
2 | – | c1ccc(-c2ccc(-c3cc(NCCNc4cc(-c5ccc(-c6ccccc6)cc5)[nH]n4)n[nH]3)cc2)cc1 (as salt: hydrochloride) [Compound 1am, N^1-(5-(Biphenyl-4-yl)-1H-pyrazol-3-yl)-N^2-(3-(biphenyl-4-yl)-1H-pyrazol-5-yl)ethane-1,2-diamine bishydrochloride] | 220 to 222 °C | –
3 | – | Cc1ccc(-c2cc(NCC(C)(C)CNc3cc(-c4ccc(C)cc4)[nH]n3)n[nH]2)cc1 (as salt: hydrochloride) [Compound 1an, dihydrochloride] | 151 °C | –
4 | – | Cc1ccc(-c2cc(NCc3cccc(CNc4cc(-c5ccc(C)cc5)[nH]n4)c3)n[nH]2)cc1 (as salt: hydrochloride) [Compound 1ao, N,N′-(1,3-Phenylenebis(methylene))bis(5-p-tolyl-1H-pyrazol-3-amine) dihydrochloride] | 183 °C | –
5 | – | Cc1ccc(-c2cc(NCc3ccc(CNc4cc(-c5ccc(C)cc5)[nH]n4)cc3)n[nH]2)cc1 (as salt: hydrochloride) [Compound 1ap, N,N′-(1,4-Phenylenebis(methylene))bis(5-p-tolyl-1H-pyrazol-3-amine) dihydrochloride] | 184 °C | –
6 | – | c1ccc(-c2cc(NCCNc3cc(-c4ccccc4)[nH]n3)n[nH]2)cc1 (as salt: hydrochloride) [Compound 1e, N^1,N^2-bis(5-Phenyl)-1H-pyrazol-3-yl)ethane-1,2-diamine bishydrochloride] | 204 °C | –
7 | – | Clc1ccc(-c2cc(NCCNc3cc(-c4ccc(Cl)cc4)[nH]n3)n[nH]2)cc1 (as salt: hydrochloride) [Compound 1f, N^1,N^2-bis(5-(4-Chlorophenyl)-1H-pyrazol-3-yl)ethane-1,2-diamine bishydrochloride] | 195 °C | –
8 | – | c1csc(-c2cc(NCCNc3cc(-c4cccs4)[nH]n3)n[nH]2)c1 (as salt: hydrochloride) [Compound 1h, N^1,N^2-bis(5-(2-Thienyl)-1H-pyrazol-3-yl)ethane-1,2-diamine bishydrochloride] | 147 °C | –
9 | – | c1c(NCCNc2cc(C3CC3)[nH]n2)n[nH]c1C1CC1 (as salt: hydrochloride) [Compound 1i, N^1,N^2-bis(5-Cyclopropyl-1H-pyrazol-3-yl)ethane-1,2-diamine bishydrochloride] | 205 to 206 °C | –
10 | – | c1ccc(Cc2cc(NCCNc3cc(Cc4ccccc4)[nH]n3)n[nH]2)cc1 (as salt: hydrochloride) [Compound 1l, N^1,N^2-bis(5-Benzyl-1H-pyrazol-3-yl)ethane-1,2-diamine dihydrochloride] | 177 to 178 °C | –
11 | – | c1coc(-c2cc(NCCNc3cc(-c4ccco4)[nH]n3)n[nH]2)c1 (as salt: hydrochloride) [Compound 1m, N^1,N^2-bis(5-(2-Furyl)-1H-pyrazol-3-yl)ethane-1,2-diamine bishydrochloride] | 214 to 216 °C | –
12 | – | Clc1ccc(-c2c[nH]nc2NCCNc2n[nH]cc2-c2ccc(Cl)cc2)cc1 (as salt: hydrochloride) [Compound 1s, N^1,N^2-bis(4-(4-Chlorophenyl)-1H-pyrazol-3-yl)ethane-1,2-diamine bishydrochloride] | 228 °C | –
13 | – | c1[nH]nc(NCCNc2n[nH]cc2C2CC2)c1C1CC1 (as salt: hydrochloride) [Compound 1v, N^1,N^2-bis(4-Cyclopropyl-1H-pyrazol-3-yl)ethane-1,2-diamine bishydrochloride] | 178 to 182 °C (dec.) | –
14 | 50.4 ± 0.9% | Cc1ccc(-c2cc(NCC(=O)Nc3cc(-c4cccs4)[nH]n3)n[nH]2)cc1 [Compound 1aa, N-(5-(Thiophen-2-yl)-1H-pyrazol-3-yl)-2-(5-p-tolyl-1H-pyrazol-3-ylamino)acetamide] | 246 °C | –
15 | – | Cc1ccc(-c2cc(NCCNc3cc(-c4cccs4)[nH]n3)n[nH]2)cc1 [Compound 1ab, N-(5-(Thiophen-2-yl)-1H-pyrazol-3-yl)-N′-(5-p-tolyl-1H-pyrazol-3-yl)ethane-1,2-diamine bishydrochloride] | – | inhibition at 330 µM (Aβ1-42; 24 h): 85 ± 8.6%; % disaggregation (preformed Aβ1-42 fibers): 78.0 ± 4.5%; remaining activity at 0.01 µM [1, 3]: 55.6%; remaining activity at 0.1 µM [1, 3]: 54.2%; remaining activity at 0.01 µM [1, 4]: 27%; remaining activity at 0.1 µM [1, 4]: 51.4%
16 | 12.4 ± 5.1% | Cc1ccc(-c2cc(NCC(=O)Nc3cc(-c4ccc(Cl)cc4)[nH]n3)n[nH]2)cc1 [Compound 1ac, N-(5-(4-Chlorophenyl)-1H-pyrazol-3-yl)-2-(5-p-tolyl-1H-pyrazol-3-ylamino)acetamide] | 257 °C | –
17 | 55 ± 11.9% | Cc1ccc(-c2cc(NC(=O)CNc3cc(-c4ccc(Cl)cc4)[nH]n3)n[nH]2)cc1 [Compound 1ad, 2-(5-(4-Chlorophenyl)-1H-pyrazol-3-ylamino)-N-(5-p-tolyl-1H-pyrazol-3-yl)acetamide] | 251 °C | –
18 | – | Cc1ccc(-c2cc(NCCNc3cc(-c4ccc(Cl)cc4)[nH]n3)n[nH]2)cc1 [Compound 1ae, N-(5-(4-Chlorophenyl)-1H-pyrazol-3-yl)-N′-(5-p-tolyl-1H-pyrazol-3-yl)ethane-1,2-diamine bishydrochloride] | – | inhibition at 330 µM (Aβ1-42; 24 h): 83.7 ± 1.7%; % disaggregation (preformed Aβ1-42 fibers): 76.0 ± 2.1%; remaining activity at 0.01 µM [1, 3]: 72.3%; remaining activity at 0.1 µM [1, 3]: 59.8%; remaining activity at 0.2 µM [1, 3]: 45.5%; remaining activity at 0.01 µM [1, 4]: 65.5%; remaining activity at 0.1 µM [1, 4]: 60.4%; remaining activity at 0.2 µM [1, 4]: 53.1%
19 | 37.6 ± 10.4% | O=C(CNc1cc(-c2cccs2)[nH]n1)Nc1cc(-c2ccc(Cl)cc2)[nH]n1 [Compound 1af, 2-(5-(Thiophen-2-yl)-1H-pyrazol-3-ylamino)-N-(5-(4-chlorophenyl)-1H-pyrazol-3-yl)acetamide] | 233 °C | –
20 | 20.8 ± 5.7% | O=C(CNc1cc(-c2ccc(Cl)cc2)[nH]n1)Nc1cc(-c2cccs2)[nH]n1 [Compound 1ag, N-(5-(Thiophen-2-yl)-1H-pyrazol-3-yl)-2-(5-(4-chlorophenyl)-1H-pyrazol-3-ylamino)acetamide] | 257 °C | –
21 | – | COc1ccc(-c2cc(NCCNc3cc(-c4ccc(OC)cc4)[nH]n3)n[nH]2)cc1 [Compound 1g, N^1,N^2-bis(5-(4-Methoxyphenyl)-1H-pyrazol-3-yl)ethane-1,2-diamine bishydrochloride] | – | inhibition at 330 µM (Aβ1-42; 24 h): 68.2 ± 7.7%; % disaggregation (preformed Aβ1-42 fibers): 66.6 ± 4.2%
22 | 35.9 ± 4.7% | Cc1ccc(-c2cc(NCC(=O)Nc3cc(C)[nH]n3)n[nH]2)cc1 [Compound 1x, N-(5-Methyl-1H-pyrazol-3-yl)-2-(5-p-tolyl-1H-pyrazol-3-ylamino)acetamide] | 180 °C | –
23 | 30.7 ± 3.8% | Cc1ccc(-c2cc(NCC(=O)Nc3cc(-c4ccc(C)cc4)[nH]n3)n[nH]2)cc1 [Compound 1y, N-(5-p-Tolyl-1H-pyrazol-3-yl)-2-(5-p-tolyl-1H-pyrazol-3-ylamino)acetamide] | 238 °C | –
24 | 22.1 ± 12.5% | Cc1ccc(-c2cc(NC(=O)CNc3cc(-c4cccs4)[nH]n3)n[nH]2)cc1 [Compound 1z, 2-(5-(Thiophen-2-yl)-1H-pyrazol-3-ylamino)-N-(5-p-tolyl-1H-pyrazol-3-yl)acetamide] | 227 °C | –
